# Test results taken from patent US20240368142A1, “KCNT1 INHIBITORS AND METHODS OF USE” (Praxis Precision Medicines, Inc., priority 2021, published 2024).
# Target: T1, KCNT1 (KNa1.1, Slack) (Homo sapiens, UniProt Q5JUK3)
# T1 construct: expressed in transfected cells; host or cells: HEK-TREX (tetracycline inducible cell line)
# T1 sequence (Q5JUK3 1-1230): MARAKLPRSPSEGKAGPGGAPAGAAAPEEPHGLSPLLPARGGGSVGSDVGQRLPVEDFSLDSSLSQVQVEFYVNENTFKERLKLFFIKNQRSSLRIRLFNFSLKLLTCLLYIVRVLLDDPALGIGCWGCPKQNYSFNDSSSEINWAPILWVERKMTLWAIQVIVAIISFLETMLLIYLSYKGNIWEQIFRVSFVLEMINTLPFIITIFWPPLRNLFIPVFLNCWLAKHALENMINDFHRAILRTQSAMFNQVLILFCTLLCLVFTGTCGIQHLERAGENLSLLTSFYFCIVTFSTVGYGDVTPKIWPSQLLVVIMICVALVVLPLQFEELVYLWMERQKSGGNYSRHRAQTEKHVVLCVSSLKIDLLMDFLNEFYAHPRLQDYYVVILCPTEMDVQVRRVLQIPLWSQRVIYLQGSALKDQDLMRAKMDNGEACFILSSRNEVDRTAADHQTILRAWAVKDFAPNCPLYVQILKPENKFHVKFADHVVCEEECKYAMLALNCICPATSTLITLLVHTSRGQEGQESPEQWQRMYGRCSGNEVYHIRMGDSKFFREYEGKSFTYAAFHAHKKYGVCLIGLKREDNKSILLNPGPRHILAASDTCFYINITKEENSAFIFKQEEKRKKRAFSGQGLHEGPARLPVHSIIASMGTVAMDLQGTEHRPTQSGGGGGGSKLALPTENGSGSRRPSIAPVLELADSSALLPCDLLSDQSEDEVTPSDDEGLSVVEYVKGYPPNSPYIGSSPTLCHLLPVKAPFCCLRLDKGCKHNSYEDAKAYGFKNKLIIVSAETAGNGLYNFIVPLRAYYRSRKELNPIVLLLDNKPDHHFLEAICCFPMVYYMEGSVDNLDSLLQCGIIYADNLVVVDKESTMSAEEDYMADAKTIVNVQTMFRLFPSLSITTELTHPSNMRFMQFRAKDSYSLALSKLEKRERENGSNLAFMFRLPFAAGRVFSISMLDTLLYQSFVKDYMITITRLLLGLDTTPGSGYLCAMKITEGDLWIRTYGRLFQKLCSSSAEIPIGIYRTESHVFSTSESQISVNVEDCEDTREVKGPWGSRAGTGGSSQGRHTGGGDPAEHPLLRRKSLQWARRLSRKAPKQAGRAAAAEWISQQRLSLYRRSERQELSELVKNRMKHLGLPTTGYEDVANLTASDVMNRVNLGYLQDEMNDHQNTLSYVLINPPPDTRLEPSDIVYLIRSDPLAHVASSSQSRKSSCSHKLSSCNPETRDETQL
# Test: KCNT1-WT-Basal-Patch Clamp Assay
# Format: cell-based
# Settings: tetracycline inducible cell line (HEK-TREX), SyncroPatch 384PE automated patch clamp, perforated patch, holding -80 mV with step to 0 mV, room temperature
# Method: KCNT1-WT-Basal-Patch Clamp Assay
# Inhibition of KCNT1 (KNa1.1, Slack) was evaluated using a tetracycline inducible cell line (HEK-TREX). Currents were recorded using the SyncroPatch 384PE automated, patch clamp system. Pulse generation and data collection were performed with PatchController384 V1.3.0 and DataController384 V1.2.1 (Nanion Technologies). The access resistance and apparent membrane capacitance were estimated using built-in protocols. Current were recorded in perforated patch mode (10 μM escin) from a population of cells. The cells were lifted, triturated, and resuspended at 800,000 cells/ml. The cells were allowed to recover in the cell hotel prior to experimentation. Currents were recorded at room temperature. The external solution contained the following (in mM): NaCl 105, NMDG 40, KCl 4, MgCl2 1, CaCl2 5 and HEPES 10 (pH=7.4, Osmolarity ˜300 mOsm). The extracellular solution was used as the wash, reference and compound delivery solution. The internal solution contained the following (in mM): NaCl 70, KF 70, KCl 10, EGTA 5, HEPES 5 and Escin 0.01 (pH=7.2, Osmolarity ˜295 mOsm). Escin is made at a 5 mM stock in water, aliquoted, and stored at −20° C. The compound plate was created at 2× concentrated in the extracellular solution. The compound was diluted to 1:2 when added to the recording well. The amount of DMSO in the extracellular solution was held constant at the level used for the highest tested concentration. A holding potential of −80 mV with a 100 ms step to 0 mV was used. Mean current was measured during the step to 0 mV. […] The average mean current from 3 sweeps was calculated and the % inhibition of each compound was calculated. The % Inhibition as a function of the compound concentration was fit with a Hill equation to derive IC50, slope, min and max parameters. If KCNT1 inhibition was less than 50% at the highest tested concentration or if an IC50 could not be calculated, then a percent inhibition was reported in place of the IC50. In this table, “A” indicates IC50 of less than or equal to 1 μM; “B” indicates inhibition of between 1 μM to 20 μM; and “C” indicates inhibition of greater than or equal to 20 μM.
row,SMILES,IC50 [µM]
1,"C[C@@H](C(=O)NC1CCCCC1)c1nc(-c2ccnc(C3CC3)c2)no1 (single isomer, unassigned) [Compound 3]",≤ 1
2,"C[C@H](C(=O)N1CCCCC1)c1nc(-c2ccnc(C3CC3)c2)no1 (single isomer, unassigned) [Compound 7]",≥ 20
3,"CC(C(=O)Nc1ccccc1)c1nc(-c2ccnc(C3CC3)c2)no1 (stereo not drawn) [Compound 1, 2-[3-(2-cyclopropyl-4-pyridyl)-1,2,4-oxadiazol-5-yl]-N-phenyl-propanamide]",≤ 1
4,"CC(C(=O)NCc1ccccc1)c1nc(-c2ccnc(C3CC3)c2)no1 (stereo not drawn) [Compound 2, N-benzyl-2-(3-(2-cyclopropylpyridin-4-yl)-1,2,4-oxadiazol-5-yl)propanamide]",≤ 1
5,"CC(C(=O)N1CCCCC1)c1nc(-c2ccnc(C3CC3)c2)no1 (stereo not drawn) [Compound 5, 2-(3-(2-cyclopropylpyridin-4-yl)-1,2,4-oxadiazol-5-yl)-1-(piperidin-1-yl)propan-1-one]",1 to 20
6,"CC(C(=O)N[C@@H](C)c1ccccc1)c1nc(-c2ccnc(C3CC3)c2)no1 (stereo partly drawn) [Compound 11, 2-(3-(2-cyclopropylpyridin-4-yl)-1,2,4-oxadiazol-5-yl)-N—((S)-1-phenylethyl)propanamide]",≤ 1

# The remaining lines, values ahead:
row,IC50 [µM],SMILES
1,≤ 1,"C[C@H](C(=O)NC1CCCCC1)c1nc(-c2ccnc(C3CC3)c2)no1 (single isomer, unassigned) [Compound 4]"
2,1 to 20,"C[C@@H](C(=O)N1CCCCC1)c1nc(-c2ccnc(C3CC3)c2)no1 (single isomer, unassigned) [Compound 6]"
3,≤ 1,"C[C@@H](C(=O)Nc1ccccc1)c1nc(-c2ccnc(C3CC3)c2)no1 (single isomer, unassigned) [Compound 8]"
4,≤ 1,"C[C@H](C(=O)Nc1ccccc1)c1nc(-c2ccnc(C3CC3)c2)no1 (single isomer, unassigned) [Compound 9]"
5,1 to 20,"CC(C(=O)N(C)c1ccccc1)c1nc(-c2ccnc(C3CC3)c2)no1 (stereo not drawn) [Compound 10, -[3-(2-cyclopropyl-4-pyridyl)-1,2,4-oxadiazol-5-yl]-N-methyl-N-phenyl-propanamide]"
6,≤ 1,"CC(C(=O)N[C@H](C)c1ccccc1)c1nc(-c2ccnc(C3CC3)c2)no1 (stereo partly drawn) [Compound 12, 2-(3-(2-cyclopropylpyridin-4-yl)-1,2,4-oxadiazol-5-yl)-N—((R)-1-phenylethyl)propanamide]"
